Data taken from patent US11753445B2, “Therapeutic peptides” (COHBAR, INC., priority 2016, dated 2023).
Values joined by “and” are separate entries in the source; they are usually repeats but may differ in a detail not shown here. Equal entries are not always repeated. Ends that are not written are not given here.

Legend:
3T3-L1 Adipocytes [1] = assay: Free fatty acid levels in cultured mouse 3T3-L1 adipocytes, isoproterenol stimulated (Example 2); type: cell-based; conditions: test peptides 25 μM; isoproterenol 1 nM
In short: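 3T3-L1 cells differentiated 12–17 days into adipocytes, then exposed to test peptides at 25 μM final for 18–20 h, then 1 h, then 3 h with isoproterenol (1 nM) at 37 °C. Free fatty acids in the medium measured colorimetrically at 540 nm, corrected for untreated background and expressed relative to isoproterenol-only cells.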

3T3-L1 Adipocytes [2] = assay: Free fatty acid levels in cultured mouse 3T3-L1 adipocytes, forskolin stimulated (Example 3); type: cell-based; conditions: test peptides 25 μM; forskolin 1 μM
In short: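 Mouse 3T3-L1 cells differentiated 12–17 days, then exposed to test peptides (25 μM) for 18–20 h, fresh peptide 1 h, then 3 h with 1 μM forskolin. Free fatty acids in medium read colorimetrically at 540 nm. Values background-corrected and expressed relative to forskolin-only cells.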

Human Primary Adipocytes [3] = assay: Free fatty acid levels in cultured human primary adipocytes, isoproterenol stimulated (Example 4); type: cell-based; conditions: test peptides 25 μM; isoproterenol 1 nM
Procedure: Human primary adipocytes were seeded at 5,000-100,000 cells per well on 96-well, 48-well, or 24-well plates in Pre-adipocyte Medium (Zen-Bio, Durham, N.C.) and grown to confluence at 37° C. in a humidified atmosphere of 5% CO2/95% air. Two days after confluence, cells were placed in Adipocyte Differentiation Medium (Zen-Bio, Durham, N.C.) and cultured for three additional days at 37° C. in a humidified atmosphere of 5% CO2/95% air. The culture media was then replaced with Adipocyte Maintenance Medium (Zen-Bio) and the cells were maintained for an additional 11-21 days at 37° C. in a humidified atmosphere of 5% CO2/95% air with partial medium replacement every other day. Following 14-24 days of differentiation, test peptides were added at a final concentration of 25 μM and incubated for 18-20 hours in Adipocyte Maintenance Medium at 37° C. in a humidified atmosphere of 5% CO2/95%. After 18-20 hours, the media was exchanged with fresh Adipocyte Maintenance Medium containing test peptides and incubated for 1 h at 37° C. in a humidified atmosphere of 5% CO2/95%. After 1 h media was exchanged with Assay Buffer (Zen-Bio) containing isoproterenol (1 nM) (added to all samples except untreated controls) and test peptides. Cells were incubated for a further 3 hours at 37° C. in a humidified atmosphere of 5% CO2/95%. Free fatty acid concentrations in the media were determined using a Free Fatty Acid Assay Kit (Zen-Bio) according to the manufacturer's instructions using a plate reader (540 nm). Absorbance values were corrected for untreated background and expressed relative to isoproterenol treated cells. Treatment with isoproterenol (1 nM) alone was used as the free fatty acid level stimulatory control. The relative standard deviation of the isoproterenol control was <14%. […] Free fatty acid levels for insulin (100 nM) treatment were <5% of the isoproterenol control value.

Human Primary Adipocytes [4] = assay: Free fatty acid levels in cultured human primary adipocytes, forskolin stimulated (Example 5); type: cell-based; conditions: test peptides 25 μM; forskolin 1 μM
In short: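 Differentiated human primary adipocytes (14–24 days) were exposed to peptides at 25 μM for 18–20 h and 1 h, then stimulated with 1 μM forskolin plus peptide for 3 h at 37 °C. Medium free fatty acids were measured colorimetrically (540 nm), background-corrected and expressed relative to forskolin-only cells.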

[5] = Stability in mouse plasma, peptides 100 uM (Example 14); type: in vitro ADME; conditions: mouse plasma 37° C., peptide 100 uM; for remaining at 0.25 h, 100 uM / remaining at 0.5 h, 100 uM / remaining at 1 h, 100 uM / remaining at 2 h, 100 uM / remaining at 3 h, 100 uM: pooled mouse plasma; for remaining at 0.25 h, 100 uM: 15 min, read-out: % Remaining at Each Time Point: 15 min; for remaining at 0.5 h, 100 uM: 30 min, read-out: % Remaining at Each Time Point: 30 min; for remaining at 1 h, 100 uM: 60 min, read-out: % Remaining at Each Time Point: 60 min; for remaining at 2 h, 100 uM: 120 min, read-out: % Remaining at Each Time Point: 120 min; for remaining at 3 h, 100 uM: 180 min, read-out: % Remaining at Each Time Point: 180 min
Procedure: (§1) Peptides (100 uM) were incubated in pooled mouse plasma at 37° C. and samples were removed and immediately analyzed for the concentration of intact peptide by LC/MS/MS over the course of 3 hours. The percent of peptide remaining in plasma at each time point was calculated relative to the initial peak area (Table 12).

[6] = tested on: Diet Induced Obese (DIO) mice; assay: Body weight and fat mass in Diet Induced Obese mice, 21-day study (Example 7); type: in vivo, Male C57BL/6 mice; conditions: male DIO mice, Mean (SD)
Procedure: Male C57BL/6 mice were maintained on a high fat diet for 12 to 22 weeks to develop diet induced obesity. Animals were randomized to treatment groups based on blood glucose levels and body weight. The peptides (SEQ ID No: 208 and SEQ ID NO: 210) were each administered to a group of male DIO mice twice daily by appropriate routes at a dose of 15 mg/kg/dose for 21 days (N=8 to 12 animals per treatment group). […] Metabolic parameters including body weight, blood glucose levels and food intake were monitored. Body mass distribution (fat vs lean) was determined where appropriate by quantitative whole body NMR prior to dosing and at the end of dosing.

3T3-L1 Adipocytes [7] = assay: Free fatty acid levels in cultured mouse 3T3-L1 adipocytes, isoproterenol stimulated (Example 17); type: cell-based; conditions: Peptide Concentration 25 μM; isoproterenol 1 nM
Procedure: Mouse 3T3-L1 cells were seeded at a density between 1,000-20,000 cells per well on 96-well, 48-well, or 24-well plates in Pre-adipocyte Medium (Zen-Bio, Durham, N.C.) and grown to confluence at 37° C. in a humidified atmosphere of 5% CO2/95% air. Two days after confluence, cells were placed in Adipocyte Differentiation Medium (Zen-Bio, Durham, N.C.) and cultured for three additional days at 37° C. in a humidified atmosphere of 5% CO2/95% air. The culture media was then replaced with Adipocyte Maintenance Medium (Zen-Bio) and the cells were maintained for an additional 9-14 days at 37° C. in a humidified atmosphere of 5% CO2/95% air with partial medium replacement every other day. Following 12-17 days of differentiation, test peptides were added at a final concentration of 25-50 μM and incubated for 18-20 hours in Adipocyte Maintenance Medium at 37° C. in a humidified atmosphere of 5% CO2/95%. After the media incubation, media was removed and exchanged with Assay Buffer (Zen-Bio) containing isoproterenol (1 nM) (added to all samples except untreated controls) and the test peptides. Cells were incubated for a further 3 hours at 37° C. in a humidified atmosphere of 5% CO2/95%. Free fatty acid concentrations in the media were determined using a Free Fatty Acid Assay Kit (Zen-Bio) according to the manufacturer's instructions using a plate reader (540 nm).
Absorbance values were corrected for untreated background and expressed relative to isoproterenol treated cells. Treatment with isoproterenol (1 nM) alone was used as the free fatty acid level stimulatory control. The relative standard deviation of the isoproterenol control was <10%. […] Free fatty acid levels for insulin (100 nM) treatment were <5% of the isoproterenol control value.

[8] = tested on: Diet Induced Obese (DIO) mice; assay: Body weight and fat mass in Diet Induced Obese mice, 10 days (Example 20); type: in vivo, Male C57BL/6 mice; conditions: male DIO mice, N = 8, Mean (SEM)
Procedure: Male C57BL/6 mice were maintained on a high fat diet for 18 weeks to develop diet induced obesity. Animals were randomized to treatment groups based on blood glucose levels and body weight. The peptides of the invention were administered to two groups of male DIG mice once or twice daily by intraperitoneal or subcutaneous injection at a doses of 5 to 15 mg/kg/dose for 10 days (N=8 animals per treatment group). An additional group of male DIG mice (n=8) received vehicle (water or saline) alone. Body weight, blood glucose levels and food intake were monitored. Body mass distribution (fat vs lean) was determined by quantitative whole body NMR prior to dosing and at the end of dosing. Administration of the peptides of the invention produced body weight loss and/or decrease in fat mass from baseline values (Table 18).

[9] = Stability in mouse plasma, peptides 10 uM (Example 15); type: in vitro ADME; conditions: mouse plasma 37° C., peptide 10 uM
Procedure: as §1, with “(10” for “(100”, “13).” for “12).”

[10] = 10 days twice daily intraperitoneal 15 mg/kg
[11] = 10 days once daily administration 15 mg/kg

| Compound | Free Fatty Acid Levels in 3T3-L1 Adipocytes Expressed as a Percent of Isoproterenol Control: Percent of Control Value (3T3-L1 Adipocytes [1]) | Free Fatty Acid Levels in 3T3-L1 Adipocytes Expressed as a Percent of Forskolin Control: Percent of Control Value (3T3-L1 Adipocytes [2]) | Free Fatty Acid Levels in Human Primary Adipocytes Expressed as a Percent of Isoproterenol Control: Percent of Control Value (Human Primary Adipocytes [3]) | Free Fatty Acid Levels in Human Primary Adipocytes Expressed as a Percent of Forskolin Control: Percent of Control Value (Human Primary Adipocytes [4]) | % Remaining at Each Time Point: 0 min [5] | remaining at 0.25 h, 100 uM [5] | remaining at 0.5 h, 100 uM [5] | remaining at 1 h, 100 uM [5] | remaining at 2 h, 100 uM [5] | remaining at 3 h, 100 uM [5] | Decrease from Baseline in Body Weight (%) [8, 10] | Decrease from Baseline in Fat Mass (g) [8, 10] | further results |
| --- | --- | --- | --- | --- | --- | --- | --- | --- | --- | --- | --- | --- | --- |
| H-MRWQEMQYIFYPR-OH [compound 209] | 30.1% | 33.3% | 66.8% | 90.1% | 100% | 47.5% | 38.9% | 38% | 36.3% | 38.3% |  |  |  |
| CCc1ccc(CCOc2ccc(CC3SC(=O)NC3=O)cc2)nc1 (stereo not drawn) [Pioglitazone, pioglitazone, reference compound] |  |  |  |  |  |  |  |  |  |  |  |  | Decrease from Baseline in Body Weight (%) ([6]; 21 days twice daily PO 15 mg/kg/dose): 1.0 (3.1) % |
| H-MRWQEMGYIFYPRKLR-OH [SEQ ID NO: 2, reference compound] |  |  |  |  |  |  |  |  |  |  |  |  | Decrease from Baseline in Body Weight (%) ([6]; 21 days twice daily IP 15 mg/kg/dose): −9.3 (5.0) % |
| H-MRWQEMGYIFYPR-OH [compound 47] | 24.5% | 45.3% | 60.5% | 89.9% | 100% | 56.7% | 49% | 38.9% | 23.8% | 18.3% |  |  |  |
| H-NYIFYPR-OH [compound 361] |  |  |  |  |  |  |  |  |  |  | −5.8 (0.8) % | −3.8 (0.5) g | Free Fatty Acid Levels in 3T3-L1 Adipocytes Expressed as a Percent of Isoproterenol Control: Percent of Control Value (3T3-L1 Adipocytes [7]): 76.3% |
| 357 (PEG600-KRWQEMNYIFYPR) [compound 357] |  |  |  |  |  |  |  |  |  |  | −3.4 (1.0) % | −1.0 (0.4) g | Free Fatty Acid Levels in 3T3-L1 Adipocytes Expressed as a Percent of Isoproterenol Control: Percent of Control Value (3T3-L1 Adipocytes [7]): 30.8%; Decrease from Baseline in Body Weight (%) [8, 11]: −1.2 (0.6) %; Decrease from Baseline in Fat Mass (g) [8, 11]: −0.2 (0.2) g |
| H-RWQEMNYIFYP-OH [compound 283] | 90.8% |  |  |  |  |  |  |  |  |  | −5.5 (0.4) % | −3.0 (0.2) g | % Remaining at Each Time Point: 0 min ([9]; 0 min): 100%; remaining at 0.25 h, 10 uM ([9]; pooled mouse plasma, 15 min, read-out: % Remaining at Each Time Point: 15 min): 54.3%; remaining at 0.5 h, 10 uM ([9]; pooled mouse plasma, 30 min, read-out: % Remaining at Each Time Point: 30 min): 25.8%; remaining at 1 h, 10 uM ([9]; pooled mouse plasma, 60 min, read-out: % Remaining at Each Time Point: 60 min): 2.05%; remaining at 2 h, 10 uM ([9]; pooled mouse plasma, 120 min, read-out: % Remaining at Each Time Point: 120 min): 0.35%; remaining at 3 h, 10 uM ([9]; pooled mouse plasma, 180 min, read-out: % Remaining at Each Time Point: 180 min): 0.14% |
| H-MRWQEMGYIFYPRK-OH [compound 46] | 43.1% | 66.8% | 71.6% | 73.9% | 100% | 28.1% | 26.4% | 31.4% | 12.4% | 12.6% |  |  |  |
| H-WQEMGYIFYPRKLR-OH [compound 39] | 84.3% | 114% | 22.2% | 80.8% | 100% | 39.5% | 38.8% | 54.9% | 24% | 16.3% |  |  |  |
| H-EMNYIFYPR-OH [compound 364] |  |  |  |  |  |  |  |  |  |  | −6.6 (1.6) % | −3.7 (1.2) g | Free Fatty Acid Levels in 3T3-L1 Adipocytes Expressed as a Percent of Isoproterenol Control: Percent of Control Value (3T3-L1 Adipocytes [7]): 87.2% |
| Ac-RWQEMGYIFYPRKLR-NH2 [compound 52] | 85.6% and 99.5% | 88.0% | 126% | 107% |  |  |  |  |  |  |  |  |  |
